Entries after “also recorded” stand apart in the source; their conditions may differ.
Test system: hydrogen peroxide in urine
Assay: Amount of hydrogen peroxide in rat urine after forced p.o. administration (FOX assay)
Assay type: in vivo, SD rats
Description: (c) The coffees obtained above in (a) and (b) were each forcibly administered p.o. (10 mL/kg) to six-week-old male SD rats (n=4). Three hours after the administration, urine was collected and the amount of hydrogen peroxide in their urine was measured. The amount of hydrogen peroxide in urine was measured by FOX (ferrous ion oxidation-xylenol orange) assay. (b) To 7-week-old male SD rats (n=4), 2.4 g/kg of instant coffee (Nescafe decaffeinated) (1.6 mg/kg in terms of hydroxyhydroquinone) and 1.6 mg/kg of hydroxyhydroquinone were forcibly administered p.o, respectively. Prior to administration and three hours and six hours after administration, urine was collected from them and the amount of hydrogen peroxide in urine was measured as in Example 2. To seven-week-old male SD rats (n=3), hydroxyhydroquinone (0.1, 0.3, 1 and 3 mg/kg, respectively) was forcibly administered p.o. Prior to administration and three and six hours after administration, urine was collected from them and the amount of hydrogen peroxide in the urine was determined as in Example 2. (c) The coffees obtained above in (a) and (b) (each, 10 mL/kg) were forcibly administered p.o. to seven-week-old male SD rats (n=8). Prior to administration and three and six hours after the administration, urine was collected from them and the amount of hydrogen peroxide in the urine was measured as in Example 2.

amount of hydrogen peroxide in urine (Example 3, FIG. 3, 7-week-old male SD rats, p.o., 2.4 g/kg instant coffee or 1.6 mg/kg hydroxyhydroquinone, three hours after administration): significant increase | dose from which the amount of hydrogen peroxide in the body increases (Example 4, FIG. 4, seven-week-old male SD rats, p.o.): ≥ 0.3 mg/kg
SMILES: Oc1ccc(O)c(O)c1 [hydroxyhydroquinone]
amount of hydrogen peroxide in the body (urine) (Example 4, FIG. 4, seven-week-old male SD rats, hydroxyhydroquinone 0.1, 0.3, 1 and 3 mg/kg p.o., urine three and six hours after administration): increases the generation amount of hydrogen peroxide in the body; also recorded: increases dose-dependently
